{"source": "patent US10155041B2", "about": "“Bacterial phospholipase inhibitors as modulator of colonic bacterial flora” (Universitaetsklinikum Heidelberg, priority 2014, dated 2018)", "key": {"[1]": {"system": "bacterial PLA2", "assay": "Determination of PLA2 activity in bacterial lysates (Bhat et al. 1993)", "format": "biochemical", "method": "FIG. 1 For determination of phospholipase A2 activity according to Bhat et al. (1993), 10 μl of aliquots of certain isolated bacterial strains prepared from fresh stool samples were incubated with arachidonoyl-thio phosphatidylcholine for 1 hour at 25° C. in a Ca^2+ free buffer as described herein. The reaction was terminated by 5,5-dithio-bis-2-nitrobenzoic acid. A405 was measured and specific PLA2 activity expressed as μmol LPC·mg^−1 protein·h^−1\nSuspensions of the respective bacterial strain in 0.9% NaCl were prepared in Sarstedt tubes and adjusted to 1.0 (3×10^8CFU/ml) with opacimeter (Densimat® or Densicheck®). Subsequently, a BHI (brain heart infusion, purchased from Merck) was inoculated with 500 μl of the suspension and incubated at 37° C. aerob or in an airtight jar with BD Gas Pak™ for 16 hours overnight on a shaker. […]\nPLA2 activity was determined as described by Bhat, et al. (1993).\nFor substrate preparation, 125 μg substrate arachidonyl PC (AAPC) was pipetted into Eppendorf reaction tubes (therefore, the volume to pipet from AAPC stocks in ethanol as supplied by Cayman Chemicals was calculated). […]\nFinally, the absorption was read at 405 nm and 595 nm.\nA unit of PLA2 is defined as a nmol of product formed by 1 ml sample in 1 h incubation. PLA2 activity was determined using the following formula: PLA2 activity(unit)=(OD405 nm−OD595 nm)×78.62×50"}, "[2]": {"system": "hepatic PLA2", "details": "Stremmel & Staffer, 2012, et al.; cited from earlier work"}, "[3]": {"system": "host mucosal epithelial cells", "assay": "Absorption from the intestinal lumen", "details": "intestinal lumen of the host"}, "[4]": {"system": "phospholipase C (PLC)"}}}
{"substance": "ursodeoxycholyl lysophosphatidylethanolamide [UDCA-LPE]", "values": [{"measurement": "inhibition of bacterial PLA2", "setting": "[1]", "result": "potent inhibitors"}, {"measurement": "inhibition of hepatic PLA2", "setting": "[2]", "result": "interferes with hepatic PLA2"}, {"measurement": "absorption by host mucosal epithelial cells", "setting": "[3]", "result": "do not enter/are not absorbed by the host mucosal epithelial cells in a considerable amount"}, {"measurement": "inhibition of bacterial phospholipase C (PLC)", "setting": "[4]", "result": "shown to be inhibited"}]}
